Test results from US20240307430A1, “PHARMACEUTICAL COMPOSITION CONTAINING NICOTINAMIDE ADENINE DINUCLEOTIDE (NAD) AND CD38 INHIBITOR AND APPLICATION THEREOF” (HEFEI KNATURE BIO-PHARM CO., LTD., priority 2021, published 2024).

Key:
[1] = system: Doxorubicin-induced cardiotoxicity (DIC) model; assay: NAD+ content of cardiac tissues in the doxorubicin-induced cardiotoxicity (DIC) model; format: in vivo, C57BL/6 male mice; conditions: FIG. 2
Procedure: Circulation. 2016; 133:1668-1687”. 8-week-old C57BL/6 male mice were injected with 5 mg/kg of doxorubicin (DOX) or normal saline via the tail vein, and the administration was performed once a week for four consecutive weeks. Four weeks after the last administration, the mice were subjected to echocardiography to detect the cardiac function, and myocardial tissues of the mice were taken to detect the NAD^+ content. Mice were intraperitoneally injected with the same volume of saline as that of the experimental group once a day, and the duration cycle was the same as that of the DIC model. After administration, mice were subjected to echocardiography to detect the cardiac function, and myocardial tissues were taken from mice to detect NAD^+ content. CD38 inhibitor 78c was dissolved with DMSO. Mice were injected intraperitoneally with 10 mg/kg CD38 inhibitor 78c at 3 hours before doxorubicin injection in the DIC model. 78c was administered once a day until the endpoint of the DIC model. At the end of the model, echocardiography was performed on the mice to detect the cardiac function of the mice, and myocardial tissues were taken from the mice to detect NAD^+ content. NAD was dissolved in saline. Mice were injected intraperitoneally with 50 mg/kg NAD at 3 hours before doxorubicin injection in the DIC model. NAD was administered once a day, which lasted until the endpoint of the DIC model. […]

CD38 [2] = assay: CD38 expression in mouse heart tissues after doxorubicin treatment; format: in vivo, mice; conditions: after doxorubicin treatment (5 mg/kg via tail vein, once a week for four weeks); mainly in CD31-positive endothelial cell region; FIG. 1
Procedure: 8-week-old C57BL/6 male mice were injected with 5 mg/kg of doxorubicin (DOX) or normal saline via the tail vein, and the administration was performed once a week for four consecutive weeks. Four weeks after the last administration, the mice were subjected to echocardiography to detect the cardiac function, and myocardial tissues of the mice were taken to detect the NAD^+ content.

[3] = system: Doxorubicin-induced cardiotoxicity (DIC) model; assay: Echocardiography of cardiac function (EF, FS) in the DIC model; format: in vivo, C57BL/6 male mice
Procedure: Circulation. 2016; 133:1668-1687”. 8-week-old C57BL/6 male mice were injected with 5 mg/kg of doxorubicin (DOX) or normal saline via the tail vein, and the administration was performed once a week for four consecutive weeks. Four weeks after the last administration, the mice were subjected to echocardiography to detect the cardiac function, and myocardial tissues of the mice were taken to detect the NAD^+ content. Mice were intraperitoneally injected with the same volume of saline as that of the experimental group once a day, and the duration cycle was the same as that of the DIC model. After administration, mice were subjected to echocardiography to detect the cardiac function, and myocardial tissues were taken from mice to detect NAD^+ content. CD38 inhibitor 78c was dissolved with DMSO. Mice were injected intraperitoneally with 10 mg/kg CD38 inhibitor 78c at 3 hours before doxorubicin injection in the DIC model. 78c was administered once a day until the endpoint of the DIC model. At the end of the model, echocardiography was performed on the mice to detect the cardiac function of the mice, and myocardial tissues were taken from the mice to detect NAD^+ content. NAD was dissolved in saline. Mice were injected intraperitoneally with 50 mg/kg NAD at 3 hours before doxorubicin injection in the DIC model. NAD was administered once a day, which lasted until the endpoint of the DIC model. At the end of the model, mice were subjected to echocardiography to detect cardiac function, and myocardial tissues were taken from mice to detect NAD^+ content. CD38 inhibitor 78c was dissolved in DMSO. Mice were injected intraperitoneally with 50 mg/kg NAD and 10 mg/kg CD38 inhibitor 78c at 3 hours before doxorubicin injection in the DIC model. The CD38 inhibitor 78c was administered once a day, which lasted until the endpoint of the DIC model. At the end of the model, mice were subjected to echocardiography to detect cardiac function, and myocardial tissues were taken from mice to detect NAD^+ content.

CD38 [4] = molecular target: T1, CD38 (Homo sapiens, UniProt P28907); conditions: from the literature, Cell Metabolism 2018; cited from earlier work
T1 sequence (P28907 1-300): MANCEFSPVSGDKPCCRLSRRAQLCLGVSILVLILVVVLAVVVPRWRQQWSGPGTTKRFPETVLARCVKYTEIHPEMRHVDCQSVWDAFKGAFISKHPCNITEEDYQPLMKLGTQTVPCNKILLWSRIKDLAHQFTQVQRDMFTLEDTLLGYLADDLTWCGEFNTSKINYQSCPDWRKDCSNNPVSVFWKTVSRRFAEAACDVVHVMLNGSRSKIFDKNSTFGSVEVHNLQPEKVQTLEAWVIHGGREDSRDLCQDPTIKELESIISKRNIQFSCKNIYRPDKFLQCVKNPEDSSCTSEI

Row | SMILES | NAD+ content of the cardiac tissues ([1]; doxorubicin 5 mg/kg via tail vein once a week for four weeks, compared with the control group) | CD38 expression in mouse heart tissues (CD38 [2]) | ejection fraction (EF) of the mouse heart ([3]; doxorubicin 5 mg/kg via tail vein once a week for four weeks, echocardiography, FIG. 3a) | fractional shortening (FS) of the mouse heart ([3]; doxorubicin 5 mg/kg via tail vein once a week for four weeks, echocardiography, FIG. 3b) | cardiac NAD+ content ([1]; DOX-treated mice, i.p. once a day from 3 hours before doxorubicin, NAD 50 mg/kg, 78c 10 mg/kg) | inhibitory activity against CD38 (CD38 [4]) | cardiac function (EF, FS) ([3]; DOX-treated mice, i.p. once a day from 3 hours before doxorubicin, NAD 50 mg/kg, 78c 10 mg/kg, FIGS. 3a and 3b)
1 | COc1cccc2c1C(=O)c1c(O)c3c(c(O)c1C2=O)C[C@@](O)(C(=O)CO)C[C@@H]3O[C@H]1C[C@H](N)[C@H](O)[C@H](C)O1 [doxorubicin] | significant decrease | significantly increased | significantly reduced | significantly reduced |  |  | 
2 | COCCOC1CCC(Nc2cc(=O)n(C)c3ccc(-c4cncs4)cc23)CC1 (stereo not shown) [compound 78c] |  |  |  |  | modestly increased | has been demonstrated | improved cardiac function
